Source: the NIST ThermoML archive (doi:10.1016/j.jct.2006.12.004)
Numbers after ± are expanded uncertainties.

Test: refractive index (Na D-line) (dimensionless)
Conditions: 293.1 K; 101.33 kPa; Liquid; Standard Abbe refractometry

`Cc1cccc(C)c1` [1,3-dimethylbenzene] showed a refractive index of 1.4943 ± 0.0007.
`O=CN1CCOCC1` [N-formylmorpholine] gave a refractive index of 1.484 ± 0.0007.
For `c1ccccc1` [benzene], the refractive index was 1.5024 ± 0.0007.
`CCCCCCC` [heptane] gave a refractive index of 1.3882 ± 0.0007.
In the case of `Cc1ccccc1` [toluene], the refractive index is reported as 1.4873 ± 0.0007.
